According to the supplement of paper PMC10307832:

Assays:
Assay in all cases: relative viability (nuclei count vs DMSO), 5 days (fraction); higher = more cells survive
[1] = compound: O=C1NC(=O)[C@@H](c2cn3c4c(cccc24)CCC3)[C@@H]1c1c[nH]c2ccccc12 [Tivantinib] + O=C(CCCCCCC(=O)Nc1ccccc1)NO [Vorinostat] (partner 1 µM)
How it was run: (§1)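 A single step with final 0.05% Triton X-100, 1% formaldehyde and 1 ug/ml Hoechst fixed the cells and stained nuclei 5 days after treatment. Lung cancer cell lines in 1536-well plates had been treated by pin tool the day after seeding with one drug alone or a fixed anchor-drug dose plus five library-drug doses (not always all listed) in √10 steps, and nuclei were counted on 4× images. Relative viability is the ratio of nuclei in treated wells to nuclei in vehicle wells, taken as the median of duplicate plates.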

[2] = compound: CC1(COc2ccc3c(c2)ncn3-c2ccc3cccc(N4CCC(N)CC4)c3n2)COC1 [Crenolanib] + O=C(c1cc(Cc2n[nH]c(=O)c3ccccc23)ccc1F)N1CCN(C(=O)C2CC2)CC1 [Olaparib] (partner 8 µM)
How it was run: as §1

[3] = compound: CC1(COc2ccc3c(c2)ncn3-c2ccc3cccc(N4CCC(N)CC4)c3n2)COC1 [Crenolanib] + Nc1nc2[nH]cc(CCc3ccc(C(=O)N[C@@H](CCC(=O)O)C(=O)O)cc3)c2c(=O)[nH]1 [Pemetrexed] (partner 0.2 µM)
How it was run: as §1

[4] = compound: O=C1NC(=O)[C@@H](c2cn3c4c(cccc24)CCC3)[C@@H]1c1c[nH]c2ccccc12 [Tivantinib] + CS(=O)(=O)N1CCN(Cc2cc3nc(-c4cccc5[nH]ncc45)nc(N4CCOCC4)c3s2)CC1 [Pictilisib] (partner 1 µM)
How it was run: as §1

Cell Line	relative viability ([1]; first compound 0.01 µM)	relative viability ([1]; first compound 0.03162 µM)	relative viability ([1]; first compound 0.1 µM)	relative viability ([1]; first compound 0.3162 µM)	relative viability ([2]; first compound 0.01 µM)	relative viability ([2]; first compound 0.03162 µM)	relative viability ([2]; first compound 0.1 µM)	relative viability ([2]; first compound 0.3162 µM)	relative viability ([2]; first compound 1 µM)	relative viability ([3]; first compound 0.01 µM)	relative viability ([3]; first compound 0.03162 µM)	relative viability ([3]; first compound 0.1 µM)	relative viability ([3]; first compound 0.3162 µM)	relative viability ([3]; first compound 1 µM)	relative viability ([4]; first compound 0.01 µM)	relative viability ([4]; first compound 0.03162 µM)	relative viability ([4]; first compound 0.1 µM)	relative viability ([4]; first compound 0.3162 µM)
NCI-H661	0.849	0.792	0.752	0.659	0.719	0.803	0.681	0.811	0.81	0.959	0.903	0.925	0.966	0.979	0.472	0.394	0.387	0.269
NCI-H838	0.728	0.724	0.693	0.776	0.828	0.776	0.735	0.855	0.635	0.247	0.253	0.258	0.264	0.281	0.442	0.479	0.389	0.373
NCI-H1355	0.611	0.571	0.675	0.61	0.812	0.817	0.739	0.784	0.651	1.07	1.12	0.947	1.13	1.01	0.401	0.356	0.426	0.38
NCI-H1395	0.749	0.802	0.722	0.666	0.495	0.453	0.543	0.439	0.45	0.88	0.768	0.924	0.831	0.864	0.581	0.595	0.571	0.61
NCI-H1437	0.877	0.82	0.829	0.853	0.632	0.636	0.621	0.647	0.591	0.336	0.3	0.297	0.352	0.336	0.379	0.308	0.416	0.407
NCI-H1650	0.605	0.448	0.651	0.553	0.677	0.84	0.659	0.82	0.607	0.438	0.395	0.38	0.371	0.459	0.561	0.389	0.589	0.605
NCI-H1651	0.554	0.612	0.559	0.542	0.177	0.186	0.198	0.171	0.166	0.573	0.599	0.592	0.566	0.62	0.622	0.448	0.545	0.614
